This is an account of results in a melting point compilation (Tetko et al.).

As usually defined, the melting point is the temperature of the solid-liquid transition. For the compound `Cc1nc(-c2ccccc2)sc1C(=O)O`, the melting point lay in the range of 214 to 215 °C.

For the compound `O[C@H]1CCC[C@@H]1O`, the melting point worked out at 55 °C.

Compound `CCOC(=O)C1=C(C)NC(C)=C(C(=O)OCC)C1c1cccc(OC)c1O` gave a melting point of 207 °C.

In turn, `CN(C(=O)N(C)c1ccccc1)c1ccccc1` displayed a melting point of 122 °C.

Turning to `CC(OCc1ccccc1)C(NC(=O)OC(C)(C)C)C(=O)O` (stereo not drawn), the melting point amounted to 116 °C.

Take `COC(=O)C1=C(C)NC(CBr)=C(C(=O)OCCCl)C1c1cccc([N+](=O)[O-])c1` (stereo not drawn): the melting point lay within 205 to 206 °C.

On to `Nc1ccc(-c2ccccc2N)cc1`, for which the melting point is 54.5 °C.

As for `O=[N+]([O-])c1ccc2ccc3cccc4ccc1c2c34`, the melting point came out at 155 °C.

In turn, `NCCCOCCCN` registered a melting point of 151 °C.

As to `COc1cc2c(cc1O)CCNC2C` (stereo not drawn), the melting point worked out at 222 °C.

The compound `Cc1nn(C)c2ncnc(N)c12` registered a melting point of 190 °C.

For the compound `N[C@H](c1ccccc1)[C@H](N)c1ccccc1`, the melting point lay in the range of 81 to 84 °C.

As to `Cc1nn(Cc2ccccc2)c(N)c1C#N`, the melting point stood at 78 °C.

`CC(O)c1cccc(N)c1` (stereo not drawn) showed a melting point of 68 °C.

`N#CCON=C(C#N)c1ccccc1`: the melting point was found to be 55 °C.

Consider `Cc1cc(=O)oc2cc(O)c(Cl)cc12`, for which the melting point fell in the range of 278 to 280 °C.

In turn, `NCc1ccc2nccn2c1` displayed a melting point of 97 to 99 °C.

On to `O=C(C(=S)N1CCOCC1)c1ccccc1`, for which the melting point turned out to be 75 °C.

Compound `N#Cc1nc(C#N)nc(C#N)n1` yielded a melting point of 119 °C.

For the compound `O=Cc1cccc(-c2ccc(C(=O)O)cc2)c1`, the melting point fell in the range of 231 to 233 °C.

`CCCCC(=O)OCC(=O)C1(O)Cc2c(O)c3c(c(O)c2C(OC2CC(NC(=O)C(F)(F)F)C(O)C(C)O2)C1)C(=O)c1c(OC)cccc1C3=O` (stereo not drawn) registered a melting point of 136 °C.

As for `CC(=CNNc1nc(C)cc(C)n1)c1cccnc1`, the melting point lay in the range of 147 to 150 °C.

`N#Cc1ccc(C2CCCc3cncn32)cc1` (stereo not drawn) returned a melting point of 117 °C.

`COc1cccnc1Cl` showed a melting point of 47 °C.

As to `COc1ccc(C(F)(F)F)cc1CBr`, the melting point turned out to be 36 °C.

In turn, `CC(C)=NN=C(C)C` showed a melting point of -12.5 °C.

The compound `BrCCc1ccccc1` returned a melting point of -56 °C.

As for `OCC#Cc1cc(C(F)(F)F)cc(C(F)(F)F)c1`, the melting point was 58 to 60 °C.

Take `CC1(C)C2CCC1(CS(=O)(=O)Cl)C(=O)C2` (stereo not drawn): the melting point amounted to 66 °C.

The compound `COc1ccccc1C1(C)CCc2oc3ccccc3c2-c2oc(C)cc21` (stereo not drawn) showed a melting point of 158 °C.

`CCCCOc1ccc(-c2nnc3n2NC(c2ccc(O)c(OC)c2)S3)cc1` (stereo not drawn): the melting point is 144 °C.

`Fc1ncccc1I` returned a melting point of 45 to 46 °C.

Compound `Cc1cccc2cc3ccccc3c(=O)n12` came in with a melting point of 78 °C.

As for `O=C(O)/C=C/Cl`, the melting point was determined as 82 °C.

For `N#Cc1c(F)c(F)cc(F)c1F`, the melting point was determined as 34 °C.

In the case of `N#Cc1ccc(C(Cl)C(Cl)c2ccc(C(Cl)C(Cl)c3ccc(C#N)cc3[N+](=O)[O-])cc2)c([N+](=O)[O-])c1` (stereo not drawn), the melting point came out at 278 °C.

`Nc1ccc(Cl)cc1C(=O)NCc1cccs1` yielded a melting point of 157 to 158 °C.

On to `Cc1noc(-c2ccccc2)c1C=O`, for which the melting point fell in the range of 85 to 87 °C.

Take `C=C1C(=O)C23C(OC(C)=O)CC4C(C)(C)CCC(OC(C)=O)C4(C)C2C(OC(C)=O)CC1(OC(C)=O)C3OC(C)=O` (stereo not drawn): the melting point was 280 °C.

For the compound `O=Nc1ccc(C(=O)OC2Cc3ccccc32)cc1` (stereo not drawn), the melting point came to 119 °C.

The compound `O=Cc1cc2cccnc2s1` yielded a melting point of 142 to 143 °C.

Regarding `CCOC(C(=O)c1ccccc1)c1ccccc1` (stereo not drawn), the melting point was found to be 62 °C.

`COc1ccc(Br)c(C(=O)CC#N)c1` registered a melting point of 92 to 93 °C.

For the compound `O=C1NCNC1(c1ccccc1)c1ccccc1`, the melting point came to 183 °C.

As to `O=c1c(=O)c2cc(Cl)c(Cl)cc12`, the melting point turned out to be 183 °C.

Compound `CCOC(=O)c1cc(-c2ccco2)[nH]n1` displayed a melting point of 137 to 138 °C.

`CC(=O)Nc1ccc(C)cc1C` had a melting point of 129 °C.

Compound `O=C(O)C=Cc1ccc(Cl)c([N+](=O)[O-])c1` had a melting point of 187 °C.

The compound `O=S(=O)(O)CCN(CCO)CCO` returned a melting point of 152 to 154 °C.

The compound `CCCc1c(C(=O)O)cnn1-c1cc(Cl)cc(Cl)c1` yielded a melting point of 169 to 171 °C.

`O=Nc1c(O)ccc2ccccc12`: the melting point came to 110 °C.

`O=C(O)C(O)c1ccc(Cl)cc1` (stereo not drawn) showed a melting point of 120 °C.

In turn, `CC(CCC(=O)O)C1CCC2C3C(=O)CC4CCCCC4(C)C3CC(=O)C12C` (stereo not drawn) yielded a melting point of 176 °C.

Compound `Cc1cc(Oc2ncccc2[N+](=O)[O-])cc(C)c1Cl` had a melting point of 80 to 82 °C.

Regarding `COc1ccccc1N1CCN(CC(N)=S)CC1`, the melting point was in the range of 130 to 132 °C.

`O=C1SC(Cl)(Cl)c2nc3c(cc21)C(=O)SC3(Cl)Cl` returned a melting point of 178 to 185 °C.

`COc1ccc(-c2csc(/C(C#N)=N\Nc3cc(C)ccc3C)n2)cc1`: the melting point was determined as 155 °C.

For the compound `Cc1noc(C)c1C#N`, the melting point was 46 to 48 °C.

Consider `O=[N+]([O-])c1cc(Br)cc(Br)c1O`, for which the melting point lay within 118 to 119 °C.

Compound `CC(=CC=Cc1ccccc1)C(=O)OC(=O)C(C)=CC=Cc1ccccc1` displayed a melting point of 112 to 113 °C.

`COC(=O)c1sc(-c2ccccc2)cc1N` came in with a melting point of 147 to 149 °C.

For the compound `O=C(O)CCc1c(Cl)cccc1Cl`, the melting point lay within 95 to 97 °C.

In turn, `CN1CCN(C2=Nc3ccccc3Oc3ccc(Cl)cc32)CC1` came in with a melting point of 110 °C.

Turning to `O=C1CC(c2ccccc2)c2ccccc21` (stereo not drawn), the melting point is 77 °C.

Compound `CNCC(=O)O` showed a melting point of 208 °C.

Take `C#CCN1CCS(=O)(=O)CC1`: the melting point fell in the range of 114 to 116 °C.

In turn, `CC(=O)C1CCC2C3CC=C4CC(O)CCC4(C)C3CCC12C` (stereo not drawn) came in with a melting point of 193 °C.

The compound `Cc1nnc(-c2cccc(S(=O)(=O)Cl)c2)o1` had a melting point of 56 to 59 °C.

Compound `O=C(O)Cc1ccc([N+](=O)[O-])cc1[N+](=O)[O-]` had a melting point of 180 °C.

Compound `CCN(CC)CCN1C(=O)CN=C(c2ccccc2F)c2cc(Cl)ccc21` returned a melting point of 79.5 °C.

For the compound `CCOC(=O)c1nn(-c2ccc(C)cc2)c(C)c1C(=O)c1noc(-c2ccc3ccccc3c2)c1S(=O)(=O)c1ccccc1`, the melting point came out at 172 °C.

With `O=[N+]([O-])c1ccc(F)c(Cl)c1`, the melting point is 44 °C.

For `COc1cc(C(=O)N2CCOCC2)cc(OC)c1OC`, the melting point is 121 °C.

Regarding `CC(C)(C)OC(=O)N1CCN(Cc2cccc(C=O)c2)CC1`, the melting point was 67 to 68 °C.

The compound `CC(C)(C)N(CCO)CCO` had a melting point of 42 °C.

In turn, `N#CCC(=O)NN` gave a melting point of 114 °C.

`CCOC(=O)c1cccc(O)c1` yielded a melting point of 74 °C.

On to `Oc1ccccc1N1CCNCC1`, for which the melting point was determined as 125 °C.
